Test [1] deals with E. coli IH3080. The test can be described thus: E-test MIC with or without NAB7061 (4 μg/ml), Mueller-Hinton agar. It is filed as cell-based, Escherichia coli. As to the method:
(§1) MICs were determined by using E-strips (Biodisk Ltd., Solna, Sweden) according to the manufacturer's instructions.
(§2) The strains originated from ATCC (11 strains), CCUG (11 strains), and NCTC (The National Collection of Type Cultures, Colindale, U.K.; 2 strains). Eight strains (the F-strains) were purchased from Mobidiag Ltd., Helsinki, Finland.

The subject of the next test is E. coli ATCC25922. The conditions noted are these: E. coli ATCC25922. As to the method:
as §1, §2

A further test has as its system K. pneumoniae ATCC13883. The conditions noted are these: K. pneumoniae ATCC13883. On the procedure: as §1, §2
The test system of the next test is E. cloacae ATCC23355. The test can be described thus: E-test MIC with or without NAB7061 (4 μg/ml), Mueller-Hinton agar. Format: cell-based, Enterobacter cloacae. On the procedure: as §1, §2
The test system of test [2] is E. coli IH3080. Description: Growth inhibition around wells on LB agar plates. Format: cell-based, Escherichia coli. As to the method:
Peptides synthesized in Example 1, all carrying at least two (2) but not more than three (3) positive charges, were studied for their ability to inhibit the growth of E. coli. This was tested employing LB agar (LB Agar Lennox, Difco, BD, Sparks, Md., U.S.A) plates. The indicator organism E. coli IH3080 (K1:O018) was an encapsulated strain originally isolated from a neonate suffering from meningitis (Vaara et al. 1984) and obtained from National Public Health Institute, Helsinki, Finland.
(§3) From an overnight-grown culture of IH3080 on LB agar, a suspension of approx. 10^8 cells/ml was prepared in 0.9% NaCl. Aliquots of this suspension were then pipetted on the agar plates and the plates were gently shaken to spread the suspension evenly on the entire surface of the plate. Thereafter, the unabsorbed part of the suspension was removed by using a Pasteur pipette. After the surface had dried, small wells (diameter, 2 mm) were drilled on the plates (five wells per plate) by using a sterile sharp-edged narrow metal tube, single-use pipette tip, and vacuum suction. An alternative method used a swab to spread the inoculum. […] Controls included 0.9% NaCl solution without the compound to be tested. The plates were then incubated for 18 h at 37° C. whereafter the diameters of growth inhibition zones around each well were measured; the diameter of the well itself was not reduced. Finally, the diameters were converted to surface areas of growth inhibition (in square mm).

For test [3], the system named is Acinetobacter baumannii ATCC 19606. The test can be described thus: Growth inhibition around wells on LB agar plates. It is filed as cell-based. The note with it: A. baumannii ATCC 19606. As to the method: as §3
(§4) Direct antibacterial activity of sixteen NAB compounds against Acinetobacter baumannii ATCC 19606 and Pseudomonas aeruginosa ATCC 27853 was tested by using the susceptibility determination method described in Example 2. Five compounds (NAB7062, NAB734, NAB737, NAB739, and NAB740) had very notable activity against A. baumannii. […] The antibacterial activity of NAB739 and NAB740 were as strong as or even stronger than that of polymyxin B.

Test [4] deals with Pseudomonas aeruginosa ATCC 27853. Description: Growth inhibition around wells on LB agar plates. Format: cell-based. The note with it: Ps. aeruginosa ATCC 27853. On the procedure:
(§5) From an overnight-grown culture of IH3080 on LB agar, a suspension of approx. 10^8 cells/ml was prepared in 0.9% NaCl. Aliquots of this suspension were then pipetted on the agar plates and the plates were gently shaken to spread the suspension evenly on the entire surface of the plate. Thereafter, the unabsorbed part of the suspension was removed by using a Pasteur pipette. After the surface had dried, small wells (diameter, 2 mm) were drilled on the plates (five wells per plate) by using a sterile sharp-edged narrow metal tube, single-use pipette tip, and vacuum suction. An alternative method used a swab to spread the inoculum. Samples (4 μl and 10 μl) of the peptide solution in 0.9% NaCl (at concentrations of 1 μg/ml and 0.1 μg/ml) were then pipetted to the wells and the sample fluids were allowed to absorb. Controls included 0.9% NaCl solution without the compound to be tested. The plates were then incubated for 18 h at 37° C. whereafter the diameters of growth inhibition zones around each well were measured; the diameter of the well itself was not reduced. Finally, the diameters were converted to surface areas of growth inhibition (in square mm).
as §4

Test [5] relates to E. coli IH3080. The test can be described thus: Sensitization to rifampin: growth inhibition around wells on LB plates containing rifampin. Format: cell-based, Escherichia coli. The conditions noted are these: 4 μg of compound. As to the method: as §5
A further test deals with A. baumannii ATCC 19606. The test is described as above. Format: cell-based, Acinetobacter baumannii. The conditions noted are these: 4 μg.
In test [6] the test system is Ps. aeruginosa ATCC 27853. The description is as above. It is filed as cell-based, Pseudomonas aeruginosa. The note with it: 4 μg.

On to `CC(=O)NC[C@H]1CN(c2ccc(N3CCOCC3)c(F)c2)C(=O)O1` [Linezolid], for which the “Sensitization factor to antibiotic (MIC without / with 4 μg/ml of NAB 7061)” value in the test with E. coli IH3080 [1] is recorded as above 8; in the test on E. coli ATCC25922, above 11; with K. pneumoniae ATCC13883, above 4; in the test with E. cloacae ATCC23355, above 8.

For the compound `COc1c(N2C[C@@H]3CCCN[C@@H]3C2)c(F)cc2c(=O)c(C(=O)O)cn(C3CC3)c12` [Moxifloxacin], the “Sensitization factor to antibiotic (MIC without / with 4 μg/ml of NAB 7061)” value in the test with E. cloacae ATCC23355 is 4.

Regarding `COc1cc(Cc2cnc(N)nc2N)cc(OC)c1OC` [Trimetoprim], the “Sensitization factor to antibiotic (MIC without / with 4 μg/ml of NAB 7061)” value turned out to be 3 with E. coli IH3080 [1], 4 in the test on E. coli ATCC25922, 2 in the test on K. pneumoniae ATCC13883 and 3 in the test with E. cloacae ATCC23355.

As to “OA-Thr-Dab-cy[Dab-Dab-DPhe-Leu-Abu-Dab-Thr-] [NAB 716]”, the “growth inhibition around a well” value in the test on E. coli IH3080 [2] (10 μg of compound per well) is on record as 64 square millimeters; in test [3] (4 μg) it was 0 square millimeters; in test [3] (10 μg), 0 square millimeters; in test [4] (4 μg) it was 0 square millimeters; in test [4] (10 μg), 0 square millimeters. Besides, the “growth inhibition around a well in the presence of rifampin” value came to 13 square millimeters in the test with E. coli IH3080 [5] (rifampin 0 μg/ml); 133 square millimeters with E. coli IH3080 [5] (rifampin 0.1 μg/ml); 165 square millimeters in the test with E. coli IH3080 [5] (rifampin 1.0 μg/ml); 0 square millimeters in the test on A. baumannii ATCC 19606 (rifampin 0 μg/ml); 0 square millimeters in the test with A. baumannii ATCC 19606 (rifampin 0.1 μg/ml); 64 square millimeters in the test with A. baumannii ATCC 19606 (rifampin 0.3 μg/ml). In addition, the “growth inhibition around a well in the presence of rifampin” value in [6] (rifampin 0 μg/ml), in test [6] (rifampin 0.1 μg/ml) and in test [6] (rifampin 0.3 μg/ml) was 0 square millimeters in each case.

For “OA-Thr-Dab-cy[Dab-Dab-DPhe-Leu-Dab-Abu-Thr-] [NAB 717]”, the “growth inhibition around a well” value (in the test on E. coli IH3080 [2] (4 μg of compound per well); in the test with E. coli IH3080 [2] (10 μg of compound per well); in [3] (4 μg); in test [3] (10 μg); in [4] (4 μg); in test [4] (10 μg)) was 0 square millimeters in each case. In addition, the “growth inhibition around a well in the presence of rifampin” value was found to be 0 square millimeters with E. coli IH3080 [5] (rifampin 0 μg/ml); 71 square millimeters with E. coli IH3080 [5] (rifampin 0.1 μg/ml); 95 square millimeters with E. coli IH3080 [5] (rifampin 1.0 μg/ml); 0 square millimeters with A. baumannii ATCC 19606 (rifampin 0 μg/ml); 0 square millimeters with A. baumannii ATCC 19606 (rifampin 0.1 μg/ml); 50 square millimeters in the test on A. baumannii ATCC 19606 (rifampin 0.3 μg/ml). For the same compound, the “growth inhibition around a well in the presence of rifampin” value in [6] (rifampin 0 μg/ml), in test [6] (rifampin 0.1 μg/ml) and in test [6] (rifampin 0.3 μg/ml) was 0 square millimeters in each case.

With “OA-Thr-Ser-cy[Dab-Dab-DPhe-Leu-Dab-Dab-Thr-] [NAB 743]”, the “growth inhibition around a well” value with E. coli IH3080 [2] (4 μg of compound per well) stood at 38 square millimeters; in the test with E. coli IH3080 [2] (10 μg of compound per well), 79 square millimeters; in [3] (4 μg), 0 square millimeters; in test [3] (10 μg) it was 0 square millimeters; in test [4] (4 μg), 28 square millimeters; in test [4] (10 μg), 38 square millimeters. For the same compound, the “growth inhibition around a well in the presence of rifampin” value with E. coli IH3080 [5] (rifampin 0 μg/ml) amounted to 38 square millimeters; in the test on E. coli IH3080 [5] (rifampin 0.1 μg/ml), 133 square millimeters; in the test on E. coli IH3080 [5] (rifampin 1.0 μg/ml), 227 square millimeters; in the test with A. baumannii ATCC 19606 (rifampin 0 μg/ml), 0 square millimeters; with A. baumannii ATCC 19606 (rifampin 0.1 μg/ml), 38 square millimeters; in the test on A. baumannii ATCC 19606 (rifampin 0.3 μg/ml) it was 227 square millimeters. Moreover, the “growth inhibition around a well in the presence of rifampin” value in [6] (rifampin 0 μg/ml), in test [6] (rifampin 0.1 μg/ml) and in [6] (rifampin 0.3 μg/ml) was 28 square millimeters throughout.

“OA-Thr-Thr-DSer-cy[Dab-Dab-DPhe-Leu-Dab-Dab-Thr-] [NAB 748]”: the “growth inhibition around a well” value in the test with E. coli IH3080 [2] (4 μg of compound per well) was 113 square millimeters; in the test with E. coli IH3080 [2] (10 μg of compound per well) it was 156 square millimeters; in [3] (4 μg) it was 20 square millimeters; in [3] (10 μg) it was 50 square millimeters; in [4] (4 μg) it was 20 square millimeters; in test [4] (10 μg), 50 square millimeters. The “growth inhibition around a well in the presence of rifampin” value was determined as 113 square millimeters in the test with E. coli IH3080 [5] (rifampin 0 μg/ml); 154 square millimeters in the test on E. coli IH3080 [5] (rifampin 0.1 μg/ml); 154 square millimeters in the test with E. coli IH3080 [5] (rifampin 1.0 μg/ml); 20 square millimeters in the test with A. baumannii ATCC 19606 (rifampin 0 μg/ml); 133 square millimeters in the test with A. baumannii ATCC 19606 (rifampin 0.1 μg/ml); 201 square millimeters in the test on A. baumannii ATCC 19606 (rifampin 0.3 μg/ml). Further, the “growth inhibition around a well in the presence of rifampin” value in test [6] (rifampin 0 μg/ml) was 20 square millimeters; in test [6] (rifampin 0.1 μg/ml), 13 square millimeters; in test [6] (rifampin 0.3 μg/ml) it was 20 square millimeters.

Turning to “Polymyxin B nonapeptide [reference compound]”, the “growth inhibition around a well” value is on record as 0 square millimeters in the test with E. coli IH3080 [2] (4 μg of compound per well); 0 square millimeters in the test on E. coli IH3080 [2] (10 μg of compound per well); 0 square millimeters in [3] (4 μg); 0 square millimeters in test [3] (10 μg); 113 square millimeters in test [4] (4 μg); 177 square millimeters in [4] (10 μg). Also, the “growth inhibition around a well in the presence of rifampin” value in the test on E. coli IH3080 [5] (rifampin 0 μg/ml) is 0 square millimeters; with E. coli IH3080 [5] (rifampin 0.1 μg/ml), 20 square millimeters; in the test on E. coli IH3080 [5] (rifampin 1.0 μg/ml), 113 square millimeters; in the test on A. baumannii ATCC 19606 (rifampin 0 μg/ml) it was 0 square millimeters; in the test with A. baumannii ATCC 19606 (rifampin 0.1 μg/ml), 133 square millimeters; in the test on A. baumannii ATCC 19606 (rifampin 0.3 μg/ml), 154 square millimeters. In addition, the “growth inhibition around a well in the presence of rifampin” value in test [6] (rifampin 0 μg/ml) was 113 square millimeters; in test [6] (rifampin 0.1 μg/ml), 113 square millimeters; in test [6] (rifampin 0.3 μg/ml) it was 154 square millimeters.

With “quinupristin-dalfopristin [Quinupristin-dalfopr.]”, the “Sensitization factor to antibiotic (MIC without / with 4 μg/ml of NAB 7061)” value was above 21 with E. coli IH3080 [1], above 21 in the test with E. coli ATCC25922, 1 with K. pneumoniae ATCC13883 and above 5 in the test on E. cloacae ATCC23355.

The record behind these values is US8329645B2, “Polymyxin derivatives and uses thereof” (priority 2008, dated 2012).
